Test results taken from patent US20220281886A1, “NATRIURETIC PEPTIDE RECEPTOR A AGONISTS USEFUL FOR THE TREATMENT OF CARDIOMETABOLIC DISEASES, KIDNEY DISEASE AND DIABETES” (Merck Sharp & Dohme Corp., priority 2019, published 2022).

biological target: T1, hNPRA (Homo sapiens, UniProt P16066); experiment: NPRA Functional Cell Assay (cGMP HTRF); assay type: cell-based; conditions: Human NPRA HEK JumpIn stable cells; cGMP by HTRF after 1 hour at 37° C.; 10-point dose response
T1 construct: expressed in transfected cells
T1 sequence (P16066 33-1061): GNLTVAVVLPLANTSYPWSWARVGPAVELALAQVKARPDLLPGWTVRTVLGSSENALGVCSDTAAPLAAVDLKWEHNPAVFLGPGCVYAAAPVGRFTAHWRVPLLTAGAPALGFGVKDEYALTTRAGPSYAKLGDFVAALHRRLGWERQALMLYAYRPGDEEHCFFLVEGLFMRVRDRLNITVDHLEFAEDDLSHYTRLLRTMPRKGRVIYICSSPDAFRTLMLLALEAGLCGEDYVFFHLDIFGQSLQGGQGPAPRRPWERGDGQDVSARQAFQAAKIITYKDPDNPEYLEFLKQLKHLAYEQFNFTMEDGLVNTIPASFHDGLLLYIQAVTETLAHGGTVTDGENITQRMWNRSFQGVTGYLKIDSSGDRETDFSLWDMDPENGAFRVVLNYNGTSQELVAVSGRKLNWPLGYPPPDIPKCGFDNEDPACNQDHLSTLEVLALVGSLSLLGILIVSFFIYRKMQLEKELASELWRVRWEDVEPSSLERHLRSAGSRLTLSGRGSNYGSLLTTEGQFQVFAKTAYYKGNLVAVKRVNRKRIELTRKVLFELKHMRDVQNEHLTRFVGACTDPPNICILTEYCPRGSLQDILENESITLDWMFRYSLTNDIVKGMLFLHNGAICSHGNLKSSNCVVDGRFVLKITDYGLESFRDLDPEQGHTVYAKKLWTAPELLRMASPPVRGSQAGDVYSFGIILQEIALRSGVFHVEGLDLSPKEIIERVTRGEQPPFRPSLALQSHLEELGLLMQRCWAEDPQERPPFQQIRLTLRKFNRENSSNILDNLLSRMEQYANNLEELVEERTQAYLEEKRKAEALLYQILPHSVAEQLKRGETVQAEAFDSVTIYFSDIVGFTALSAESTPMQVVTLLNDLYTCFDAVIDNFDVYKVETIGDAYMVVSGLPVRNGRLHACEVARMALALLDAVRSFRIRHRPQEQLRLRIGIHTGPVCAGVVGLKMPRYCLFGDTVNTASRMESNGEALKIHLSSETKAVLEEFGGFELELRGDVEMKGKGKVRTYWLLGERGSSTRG
Excerpt: Assay Buffer components HEPES and Opti-MEM® I Reduced-Serum with Glutamine (no phenol red) were from Gibco/Invitrogen (Thermo Fisher Scientific, Waltham, Mass. USA). 3-Isobutyl-1-methylxanthine (IBMX) and 4-(3-Butoxy-4-methoxybenzyl)imidazolidin-2-one (RO20) were obtained from Sigma-Aldrich (St. Louis, Mo., USA). DPBS (Dulbecco's phosphate-buffered saline) without Ca2+ and Mg2+ was purchased from GE Healthcare Bio-Sciences (Pittsburgh, Pa., USA). 384 well white Optiplates were from Perkin Elmer (Atlantic Highlands, N.J., USA). Human ANP (Atrial Natriuretic Peptide) (1-28) was purchased from Sigma-Aldrich (Catalog #A1663) and rat ANP (1-28) from Bachem (Torrance, Calif., USA) (Catalog #H2100). Human-BNP (Human-Brain Natriuretic Peptide) (1-32 AA) was purchased from American Peptide Company (Sunnyvale, Calif., USA) (product No. 14-1-90). cGMP kits were purchased from Cisbio. The assay ready frozen (ARF) Human/rat/dog NPRA HEK JumpIn Stable frozen cells (low passage number 5-11) were prepared in-house.
Test compounds were titrated in DMSO in a 10-point dose response in a separate step followed by a 100-fold dilution into the reaction. Positive response for each assay was determined using 10 nM rat-ANP peptide (rat cells) or 50 nM h-ANP peptide (human and dog cells).
Cells were thawed, washed with DPBS and resuspended in assay buffer (Opti-MEM+Glutamine, phenol red free media, 10 mM HEPES, 100 uM IBMX and 100 uM RO20) that was warmed to 37° C. Cells were then transferred to microplates via a Microplate Combi dispenser at a density of 1500, 400 and 1200 cells/well for human, rat and dog cells respectively, followed by acoustic transfer (Echo) of compound.
(§1) Compounds and cells were incubated at 37° C. with 5% CO2 for 1 hour, after which the cells were lysed and cGMP was captured using a CisBio cGMP HTRF assay kit. The TRF signal was measured with an Envision plate reader (emission set to 615 and 665 nm) after 1 hour incubation at ambient temperature. The TRF signal was converted to [cGMP] through the use of a cGMP calibration curve on each microplate. EC50's were generated from the resulting dose response curves by use of a 4 parameter logistic algorithm.
Assay Buffer components HEPES and Opti-MEM® I Reduced-Serum with Glutamine (no phenol red) were from Gibco/Invitrogen. 3-Isobutyl-1-methylxanthine (IBMX) and 4-(3-Butoxy-4-methoxybenzyl)imidazolidin-2-one (RO20) were obtained from Sigma. DPBS (Dulbecco's phosphate-buffered saline) without Ca2+ and Mg2+ was purchased from GE Healthcare Bio-Sciences (Pittsburgh, Pa., USA). 384 well white Optiplates were from Perkin Elmer (Atlantic Highlands, N.J., USA). Human ANP (1-28) was purchased from Sigma (A1663) and rat ANP (1-28) from Bachem (H2100). Human-BNP (1-32 AA) was purchased from American Peptide Company (Sunnyvale, Calif., USA) (product No. 14-1-90). cGMP kits were purchased from Cisbio (Bedford, Mass., USA). The assay ready frozen (ARF) Human/rat/dog NPRA HEK JumpIn Stable frozen cells (low passage number 5-11) were prepared in-house.
as §1, with “Envision®” for “Envision”, “(Perkin Elmer)(emission” for “(emission”
hNPRA EC50 (nM) are were determined for the compounds of Example 1 through 273 and are reported in the Experimental section of this application.

| SMILES | EC50 [µM] |
| --- | --- |
| CC(C)[C@]1(F)CCc2nc3c(F)cc(C(=O)N[C@H](CCN4CCC[C@H](O)C4)c4ccc(-c5ccnnc5)nc4)cc3cc2C1 (racemic) [Example 36, rac-(7S)-4,7-difluoro-7-isopropyl-N-[rac-(1R)-1-(6-pyridazin-4-yl-3-pyridyl)-3-[rac-(3S)-3-hydroxypiperidin-1-ium-1-yl]propyl]-6,8-dihydro-5H-acridine-2-carboxamide;2,2,2-trifluoroacetate] | 0.26 |
| CN1CC(NC(=O)c2cccc([C@@H](CCN3CCC[C@H]3CO)NC(=O)c3ccc4nc5c(cc4c3)C[C@@H](C3(C(F)F)CC3)CC5)c2)C1 [Example 23] | 0.405 |
| CC(O)C1CCN(CC[C@@H](NC(=O)c2cc(F)c3nc4c(cc3c2)C[C@](F)(C(C)C)CC4)c2ccc(-c3ccnnc3)nc2)CC1 (mixture of isomers) [Example 41, rac-(7S)-4,7-difluoro-7-isopropyl-N-[rac-(1R)-3-[4-(1-hydroxyethyl)piperidin-1-ium-1-yl]-1-(6-pyridazin-4-yl-3-pyridyl)propyl]-6,8-dihydro-5H-acridine-2-carboxamide;2,2,2-trifluoroacetate] | 0.236 |
| CC(C)[C@]1(F)CCc2nc3c(F)cc(C(=O)N[C@H](CCN4CCC5(CCO5)CC4)c4ccc(-c5ccnnc5)nc4)cc3cc2C1 (racemic) [Example 62, rac-(7S)-4,7-difluoro-7-isopropyl-N-[rac-(1R)-3-(1-oxa-7-azaspiro[3.5]nonan-7-yl)-1-(6-pyridazin-4-yl-3-pyridyl)propyl]-6,8-dihydro-5H-acridine-2-carboxamide] | 0.0603 |
| CC(C)[C@]1(F)CCc2nc3c(F)cc(C(=O)N[C@H](CCN4CCC(O)CC4)c4cnc(NS(=O)(=O)N(C)C)c(F)c4)cc3cc2C1 [Example 27, (S)-N-((R)-1-(6-((N,N-dimethylsulfamoyl)amino)-5-fluoropyridin-3-yl)-3-(4-hydroxypiperidin-1-yl)propyl)-4,7-difluoro-7-isopropyl-5,6,7,8-tetrahydroacridine-2-carboxamide] | 2.45 |
| COC(=O)C1CCN(CC[C@@H](NC(=O)c2cc(F)c3nc4c(cc3c2)C[C@](F)(C(C)C)CC4)c2ccc(-c3cnc(O)c(F)c3)cc2)CC1 [Example 24, methyl 1-((R)-3-((S)-4,7-difluoro-7-isopropyl-5,6,7,8-tetrahydroacridine-2-carboxamido)-3-(4-(5-fluoro-6-hydroxypyridin-3-yl)phenyl)propyl)piperidine-4-carboxylate] | 0.237 |
| CC(C)[C@]1(F)CCc2nc3c(F)cc(C(=O)N[C@H](CCN4CCC5(CC4)CC5CO)c4ccc(-c5ccnnc5)nc4)cc3cc2C1 (mixture of isomers) [Example 39, rac-(7S)-4,7-difluoro-7-isopropyl-N-[rac-(1R)-3-[2-(hydroxymethyl)-6-azoniaspiro[2.5]octan-6-yl]-1-(6-pyridazin-4-yl-3-pyridyl)propyl]-6,8-dihydro-5H-acridine-2-carboxamide;2,2,2-trifluoroacetate] | 0.258 |
| CCS(=O)(=O)c1ccc([C@@H](CCN2CCC(O)CC2)NC(=O)c2cc(F)c3nc4c(cc3c2)CC(F)(C(C)C)CC4)cn1 (stereo in doubt) [Example 30, (S)-N-((R)-1-(6-(ethylsulfonyl)pyridin-3-yl)-3-(4-hydroxypiperidin-1-yl)propyl)-4,7-difluoro-7-isopropyl-5,6,7,8-tetrahydroacridine-2-carboxamide] | 0.97 |
| CC(C)[C@]1(F)CCc2nc3c(F)cc(C(=O)N[C@H](CCN4CCC(O)CC4)c4ccc(NS(=O)(=O)N(C)C)nc4)cc3cc2C1 [Example 26, (S)-N-((R)-1-(6-((N,N-dimethylsulfamoyl)amino)pyridin-3-yl)-3-(4-hydroxypiperidin-1-yl)propyl)-4,7-difluoro-7-isopropyl-5,6,7,8-tetrahydroacridine-2-carboxamide] | 0.246 |
| CC(C)[C@]1(F)CCc2nc3c(F)cc(C(=O)N[C@H](CCN4CCC5CCCCC5C4)c4ccc(-c5ccnnc5)nc4)cc3cc2C1 (mixture of isomers) [Example 42, rac-(7S)-4,7-difluoro-7-isopropyl-N-[rac-(1R)-3-(1,2,3,4,4a,5,6,7,8,8a-decahydroisoquinolin-2-ium-2-yl)-1-(6-pyridazin-4-yl-3-pyridyl)propyl]-6,8-dihydro-5H-acridine-2-carboxamide;2,2,2-trifluoroacetate] | 0.375 |
| CC1([C@H]2CCc3nc4ccc(C(=O)N[C@H](CCN5CCC(O)CC5)c5ccc(N6CCOC6=O)cc5)cc4cc3C2)CC1 [Example 1, (S)-N-((R)-3-(4-hydroxypiperidin-1-yl)-1-(4-(2-oxooxazolidin-3-yl)phenyl)propyl)-7-(1-methylcyclopropyl)-5,6,7,8-tetrahydroacridine-2-carboxamide] | 0.701 |
| CC(C)[C@]1(F)CCc2nc3c(F)cc(C(=O)N[C@H](CCN4CCC5(CCCO5)CC4)c4ccc(-c5ccnnc5)nc4)cc3cc2C1 (racemic) [Example 55, rac-(7S)-4,7-difluoro-7-isopropyl-N-[rac-(1R)-3-(1-oxa-8-azaspiro[4.5]decan-8-yl)-1-(6-pyridazin-4-yl-3-pyridyl)propyl]-6,8-dihydro-5H-acridine-2-carboxamide] | 0.344 |
| CC(C)[C@]1(F)CCc2nc3c(F)cc(C(=O)N[C@H](CCN4CCC(C)(O)CC4)c4ccc(-c5ccnnc5)nc4)cc3cc2C1 [Example 12, (7S)-4,7-difluoro-N-[(1R)-3-(4-hydroxy-4-methylpiperidin-1-yl)-1-(6-pyridazin-4-ylpyridin-3-yl)propyl]-7-(1-methylethyl)-5,6,7,8-tetrahydroacridine-2-carboxamide] | 0.205 |
| CC(C)[C@]1(F)CCc2nc3c(F)cc(C(=O)N[C@H](CCN4CCC5(CCOC5)CC4)c4ccc(-c5ccnnc5)nc4)cc3cc2C1 (racemic) [Example 38, rac-(7S)-4,7-difluoro-7-isopropyl-N-[rac-(1R)-3-(2-oxa-8-azoniaspiro[4.5]decan-8-yl)-1-(6-pyridazin-4-yl-3-pyridyl)propyl]-6,8-dihydro-5H-acridine-2-carboxamide;2,2,2-trifluoroacetate] | 0.317 |
